Measured values as given in PMC4128046, “Effect of a toggle switch mutation in TM6 of the human adenosine A3 receptor on Gi protein-dependent signalling and Gi-independent receptor internalization” (British Journal of Pharmacology, 2014).
Residue numbers refer to the chain shown, from its start.

How the values were obtained:
SNAP-A3 = molecular target: T1, SNAP-A3 (Homo sapiens, UniProt P0DMS8); assay: Confocal imaging of SNAP-tagged receptor internalization, SNAP-A3; assay type: cell-based; settings: SNAP-A3 transiently expressed in CHO CRE-SPAP cells, BG-AF488 label, 10 μM agonist
T1 construct: the methionine start signal was removed from cDNA encoding the full length A3; expressed in transfected cells; host or cells: CHO CRE-SPAP, transient (Fugene HD)
T1 sequence (P0DMS8 2-318 limits assumed): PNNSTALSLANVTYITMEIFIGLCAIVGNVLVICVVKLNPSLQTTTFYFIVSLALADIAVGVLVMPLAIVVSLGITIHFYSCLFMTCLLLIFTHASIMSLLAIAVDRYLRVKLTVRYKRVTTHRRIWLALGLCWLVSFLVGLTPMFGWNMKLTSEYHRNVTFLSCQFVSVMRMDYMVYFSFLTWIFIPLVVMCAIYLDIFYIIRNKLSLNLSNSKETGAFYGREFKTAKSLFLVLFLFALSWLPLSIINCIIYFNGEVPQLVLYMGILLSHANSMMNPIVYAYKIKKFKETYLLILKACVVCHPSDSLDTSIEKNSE
Procedure: (§1) CHO-K1 cells stably expressing a cAMP response element-secreted placental alkaline phosphatase (CRE-SPAP) reporter gene (CHO CRE-SPAP) under hygromycin selectivity and CHO-K1 cells stably expressing β-arrestin2-vYnL (CHO β-arrestin2-vYnL, a gift from Dr. N. Holliday, University of Nottingham, Nottingham, UK) were maintained in DMEM/F12 medium containing 10% FCS and 2 mM L-glutamine at 37°C in a humidified atmosphere of air/CO2 (19:1). […] Cell lines were initially screened for YFP or bimolecular fluorescence complementation (BiFC) fluorescence and CRE-SPAP cells lines were subsequently tested in the CRE-SPAP gene transcription assay. […]
(§2) Live-cell BiFC imaging was performed on A3-vYc/β-arrestin2-vYnL and A3 W243F-vYc/β-arrestin2-vYnL cells grown in Nunc Labtek 8-well plates, and images obtained using a Zeiss 710 confocal microscope (Carl Zeiss GmbH, Jena, Germany) fitted with a 63× plan-Apochromat NA1.4 Ph3 oil-immersion objective. […] For both YFP, BiFC and BG-AF488 label, a 488 nm argon laser was used to excite the fluorophore and emission was detected using a BP505-530 filter. […] Images of A3-YFP and A3 W243F-YFP cells were taken with same pinhole diameter, laser power, gain and offset to allow comparison of YFP fluorescence. To obtain fluorescence intensity values, a region of interest was drawn around the plasma membrane of 10 cells per image in Zeiss AIM 4.2 software (Carl Zeiss GmbH).

SNAP-A3 W243F = molecular target: T2, SNAP-A3 W243F (Homo sapiens, UniProt P0DMS8, W243F); assay: Confocal imaging of SNAP-tagged receptor internalization, SNAP-A3 W243F; assay type: cell-based; settings: SNAP-A3 W243F transiently expressed in CHO CRE-SPAP cells, BG-AF488 label, 10 μM agonist
T2 construct: the methionine start signal was removed from cDNA encoding the full length A3; expressed in transfected cells; host or cells: CHO CRE-SPAP, transient (Fugene HD)
T2 sequence (P0DMS8 2-318 W243F limits assumed): T1 sequence (P0DMS8 2-318 limits assumed) with W242F
Procedure: as §1, §2

| SMILES | internalization of SNAP-tagged receptor seen in confocal images (SNAP-A3) | internalization of SNAP-tagged receptor seen in confocal images (SNAP-A3 W243F) |
| --- | --- | --- |
| CCNC(=O)[C@H]1O[C@@H](n2cnc3c(N)ncnc32)[C@H](O)[C@@H]1O [NECA, 5-(N-ethylcarboxamido)adenosine] | clear punctate granules | retained the ability to cause internalization |
| CCCCC#Cc1nc(NC)c2ncn([C@@H]3O[C@H](CO)[C@@H](O)[C@H]3O)c2n1 [HEMADO, 2-(1-hexynyl)-N-methyladenosine] | clear punctate granules | did not result in any clear change in the localization |
